From EP1683523A1, “2-Phenylquinoxalines as inhibitors for MPP1” (MAX-PLANCK-GESELLSCHAFT ZUR FÖRDERUNG DER WISSENSCHAFTEN …, priority 2005, dated 2006)

Columns and labels:
[1] = target: T1, His-tagged human MPP1 construct (Aa 1-533) (Homo sapiens, UniProt Q96Q89); assay: Malachite-green based in vitro microtubule-stimulated ATPase assay (potency study); type: biochemical; conditions: microtubule-stimulated ATPase activity, DMSO as solvent control, Fig. 1
T1 construct: a His-tagged human MPP1 construct (Aa 1-533); His
T1 sequence (Q96Q89 1-533): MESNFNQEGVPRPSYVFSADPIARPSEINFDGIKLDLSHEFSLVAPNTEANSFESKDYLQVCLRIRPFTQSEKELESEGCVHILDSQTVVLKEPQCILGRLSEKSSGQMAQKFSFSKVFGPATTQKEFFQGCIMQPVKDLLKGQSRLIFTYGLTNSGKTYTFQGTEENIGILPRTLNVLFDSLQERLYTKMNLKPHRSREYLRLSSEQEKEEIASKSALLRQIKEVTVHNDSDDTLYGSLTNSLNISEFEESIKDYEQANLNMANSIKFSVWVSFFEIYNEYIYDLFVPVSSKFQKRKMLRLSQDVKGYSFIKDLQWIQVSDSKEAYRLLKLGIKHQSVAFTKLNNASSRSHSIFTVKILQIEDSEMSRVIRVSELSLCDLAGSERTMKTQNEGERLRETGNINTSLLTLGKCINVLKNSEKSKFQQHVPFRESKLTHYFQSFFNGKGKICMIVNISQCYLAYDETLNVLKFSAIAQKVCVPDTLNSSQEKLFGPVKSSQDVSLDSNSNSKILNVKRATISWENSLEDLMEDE
Protocol: The 2-phenylquinoxaline derivatives were measured be means of a malachite-green based (Itaya K. and UI, M. (1966), A new micromethod for the colorimetric determination of inorganic phosphate; Clin. Chim. Acta, 14: 362 - 366) in vitro ATPase assay. For this assay the microtubule-stimulated ATPase activity of a His-tagged human MPP1 construct (Aa 1-533) in the presence of small molecules or DMSO as a solvent control were measured. These studies are done in 384-well plates in which individual compounds of a large compound collection are transferred into each well using a liquid handling robot.
The potency of 5-chloro-2-(3,4-dichlorophenyl)-7-(trifluoromethyl)quinoxaline as a representative example of the 2-phenylquinoxaline derivatives of general formula (I) was determined by measuring MPP1's microtubule-stimulated ATPase activity in vitro in the presence of 5-chloro-2-(3,4-dichlorophenyl)-7-(trifluoromethyl)-quinoxaline or DMSO as a solvent control. For these studies a malachite green assay which allows the quantification of free phosphate (Pi) in solution was used.

[2] = target: T2, Eg5 (Homo sapiens, UniProt P52732); assay: Malachite-green in vitro microtubule-stimulated ATPase assay (specificity); type: biochemical; conditions: Fig. 2
T2 sequence (P52732 1-1056): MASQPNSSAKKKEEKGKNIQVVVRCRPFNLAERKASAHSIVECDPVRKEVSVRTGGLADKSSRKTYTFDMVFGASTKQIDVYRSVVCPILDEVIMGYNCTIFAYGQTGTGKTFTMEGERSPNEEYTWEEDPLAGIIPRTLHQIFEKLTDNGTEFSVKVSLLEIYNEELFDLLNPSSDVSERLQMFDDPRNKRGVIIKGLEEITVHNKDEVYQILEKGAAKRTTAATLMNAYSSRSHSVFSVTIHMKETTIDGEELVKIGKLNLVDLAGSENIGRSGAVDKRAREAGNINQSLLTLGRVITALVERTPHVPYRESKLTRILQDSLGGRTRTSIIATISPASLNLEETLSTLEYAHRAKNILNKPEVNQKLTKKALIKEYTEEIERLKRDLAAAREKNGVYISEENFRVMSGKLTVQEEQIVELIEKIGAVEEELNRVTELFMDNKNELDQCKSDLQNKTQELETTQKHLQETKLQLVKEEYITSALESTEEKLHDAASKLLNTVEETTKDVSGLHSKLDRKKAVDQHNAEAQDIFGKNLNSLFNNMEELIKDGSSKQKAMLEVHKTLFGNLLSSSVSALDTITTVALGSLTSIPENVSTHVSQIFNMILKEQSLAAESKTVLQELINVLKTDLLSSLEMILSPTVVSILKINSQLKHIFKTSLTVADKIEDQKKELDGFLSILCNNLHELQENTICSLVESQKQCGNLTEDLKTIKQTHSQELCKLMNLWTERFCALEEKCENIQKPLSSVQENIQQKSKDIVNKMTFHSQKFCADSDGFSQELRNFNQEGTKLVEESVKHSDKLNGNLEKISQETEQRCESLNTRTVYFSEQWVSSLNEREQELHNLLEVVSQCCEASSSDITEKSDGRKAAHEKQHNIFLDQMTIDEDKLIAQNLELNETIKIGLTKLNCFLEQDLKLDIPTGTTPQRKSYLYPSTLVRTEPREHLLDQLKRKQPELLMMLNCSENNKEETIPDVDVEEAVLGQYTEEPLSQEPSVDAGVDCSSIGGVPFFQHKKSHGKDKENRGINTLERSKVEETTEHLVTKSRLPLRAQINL
Protocol: (§1) The specificity of 5-chloro-2-(3,4-dichlorophenyl)-7-(trifluoromethyl)quinoxaline was determined by measuring its effect on the microtubule-stimulated in vitro ATPase activities of the kinesins Eg5, Kif4, Mklp1, and Mklp2.

[3] = target: T3, Kif4 (Homo sapiens, UniProt O95239); assay: as above; type: biochemical; conditions: Fig. 2
T3 sequence (O95239 1-1232): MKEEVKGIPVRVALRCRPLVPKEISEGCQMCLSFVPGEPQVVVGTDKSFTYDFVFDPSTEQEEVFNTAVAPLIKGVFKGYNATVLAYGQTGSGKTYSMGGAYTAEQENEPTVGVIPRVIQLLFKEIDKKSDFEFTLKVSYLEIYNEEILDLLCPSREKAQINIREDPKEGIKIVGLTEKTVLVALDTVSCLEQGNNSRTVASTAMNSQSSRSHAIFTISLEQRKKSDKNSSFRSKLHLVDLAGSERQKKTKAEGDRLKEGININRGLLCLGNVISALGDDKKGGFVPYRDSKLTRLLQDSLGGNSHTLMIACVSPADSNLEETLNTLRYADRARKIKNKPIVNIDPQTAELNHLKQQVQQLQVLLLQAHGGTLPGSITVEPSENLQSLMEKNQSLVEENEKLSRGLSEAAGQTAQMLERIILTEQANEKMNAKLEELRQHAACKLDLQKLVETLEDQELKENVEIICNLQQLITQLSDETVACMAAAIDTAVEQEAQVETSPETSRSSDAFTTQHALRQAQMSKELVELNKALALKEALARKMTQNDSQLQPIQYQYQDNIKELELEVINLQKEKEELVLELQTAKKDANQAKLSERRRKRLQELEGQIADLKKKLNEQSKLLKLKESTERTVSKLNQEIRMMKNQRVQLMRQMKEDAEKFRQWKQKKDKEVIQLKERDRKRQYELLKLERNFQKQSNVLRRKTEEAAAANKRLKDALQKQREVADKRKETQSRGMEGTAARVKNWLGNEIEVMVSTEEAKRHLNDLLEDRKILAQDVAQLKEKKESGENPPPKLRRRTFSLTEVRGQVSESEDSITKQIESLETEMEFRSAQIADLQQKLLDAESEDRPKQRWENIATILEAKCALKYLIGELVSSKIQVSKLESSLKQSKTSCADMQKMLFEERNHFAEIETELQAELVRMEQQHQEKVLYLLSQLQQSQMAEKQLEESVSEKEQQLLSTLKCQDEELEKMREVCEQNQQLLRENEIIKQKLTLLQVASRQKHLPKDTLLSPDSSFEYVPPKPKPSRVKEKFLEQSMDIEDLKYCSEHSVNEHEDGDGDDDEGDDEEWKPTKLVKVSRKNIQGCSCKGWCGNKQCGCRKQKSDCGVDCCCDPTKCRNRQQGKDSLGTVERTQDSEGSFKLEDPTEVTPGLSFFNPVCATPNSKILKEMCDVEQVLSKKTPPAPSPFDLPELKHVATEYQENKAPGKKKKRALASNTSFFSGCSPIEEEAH
Protocol: as §1

[4] = target: T4, Mklp1 (Homo sapiens, UniProt Q02241); assay: as above; type: biochemical; conditions: Fig. 2
T4 sequence (Q02241 1-960): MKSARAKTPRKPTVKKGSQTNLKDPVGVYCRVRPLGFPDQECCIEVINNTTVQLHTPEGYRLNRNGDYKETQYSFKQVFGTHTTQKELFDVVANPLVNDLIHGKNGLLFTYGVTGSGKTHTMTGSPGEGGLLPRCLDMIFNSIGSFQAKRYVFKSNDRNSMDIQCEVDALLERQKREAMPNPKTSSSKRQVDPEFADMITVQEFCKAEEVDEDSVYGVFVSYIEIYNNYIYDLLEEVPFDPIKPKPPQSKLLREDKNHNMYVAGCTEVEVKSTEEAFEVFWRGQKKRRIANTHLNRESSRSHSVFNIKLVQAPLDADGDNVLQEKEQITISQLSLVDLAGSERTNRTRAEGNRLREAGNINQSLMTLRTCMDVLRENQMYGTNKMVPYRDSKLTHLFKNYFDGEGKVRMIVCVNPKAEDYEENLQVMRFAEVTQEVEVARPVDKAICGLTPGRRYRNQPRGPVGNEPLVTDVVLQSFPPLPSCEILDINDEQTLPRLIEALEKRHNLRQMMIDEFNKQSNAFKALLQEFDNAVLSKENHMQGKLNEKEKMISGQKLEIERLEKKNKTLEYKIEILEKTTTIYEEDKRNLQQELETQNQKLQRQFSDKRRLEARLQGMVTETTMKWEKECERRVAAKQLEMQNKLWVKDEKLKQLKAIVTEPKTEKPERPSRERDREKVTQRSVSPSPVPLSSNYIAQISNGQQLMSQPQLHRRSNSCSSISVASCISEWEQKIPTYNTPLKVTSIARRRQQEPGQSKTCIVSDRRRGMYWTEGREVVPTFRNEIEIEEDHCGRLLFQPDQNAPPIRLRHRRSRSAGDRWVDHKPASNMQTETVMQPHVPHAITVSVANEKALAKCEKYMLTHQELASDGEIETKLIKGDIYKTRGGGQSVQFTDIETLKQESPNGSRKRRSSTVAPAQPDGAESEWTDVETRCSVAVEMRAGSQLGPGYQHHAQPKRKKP
Protocol: as §1

[5] = target: T5, Mklp2 (Homo sapiens, UniProt O95235); assay: as above; type: biochemical; conditions: Fig. 2
T5 sequence (O95235 1-890): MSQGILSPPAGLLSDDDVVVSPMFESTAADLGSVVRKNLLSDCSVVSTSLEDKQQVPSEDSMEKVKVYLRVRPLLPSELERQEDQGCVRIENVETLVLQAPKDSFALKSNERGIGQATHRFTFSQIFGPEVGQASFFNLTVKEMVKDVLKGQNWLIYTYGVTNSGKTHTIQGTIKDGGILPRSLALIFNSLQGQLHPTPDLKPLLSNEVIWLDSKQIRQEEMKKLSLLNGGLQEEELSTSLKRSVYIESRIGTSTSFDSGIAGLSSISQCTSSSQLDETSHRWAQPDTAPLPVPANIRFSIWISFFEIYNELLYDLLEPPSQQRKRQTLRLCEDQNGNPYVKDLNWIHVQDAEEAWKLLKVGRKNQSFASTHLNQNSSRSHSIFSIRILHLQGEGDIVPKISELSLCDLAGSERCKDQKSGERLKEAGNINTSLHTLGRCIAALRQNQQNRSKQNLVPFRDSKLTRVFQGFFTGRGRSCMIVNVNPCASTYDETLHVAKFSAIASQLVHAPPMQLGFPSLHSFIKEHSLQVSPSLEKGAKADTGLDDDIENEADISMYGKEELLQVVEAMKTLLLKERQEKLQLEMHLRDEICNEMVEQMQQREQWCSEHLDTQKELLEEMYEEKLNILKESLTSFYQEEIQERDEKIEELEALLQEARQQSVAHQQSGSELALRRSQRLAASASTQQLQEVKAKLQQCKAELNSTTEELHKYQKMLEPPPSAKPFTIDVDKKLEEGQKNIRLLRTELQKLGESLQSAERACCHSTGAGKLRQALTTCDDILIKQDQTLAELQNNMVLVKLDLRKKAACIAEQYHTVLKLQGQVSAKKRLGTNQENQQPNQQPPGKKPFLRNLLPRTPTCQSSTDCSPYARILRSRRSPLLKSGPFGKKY
Protocol: as §1

[6] = tested on: BSC-1 (African green monkey) cells; assay: Cellular phenotype: count of binucleated cells; type: cell-based; conditions: Chlorocebus sabaeus; synchronized BSC-1 cells, released from thymidine-block for three hours, treated for 18 hours; at least 200 cells counted per concentration; read-out: EC50, induction of a binucleate phenotype in BSC-1
Protocol: Concerning the study the function of MPP1 in living cells, it was tested whether 5-chloro-2-(3,4-dichlorophenyl)-7-(trifluoromethyl)quinoxaline induces a phenotype similar to the one obtained by RNAi-mediated depletion of MPP1. For these studies we treated synchronized BSC-1 (African green monkey) cells with 5-chloro-2-(3,4-dichlorophenyl)-7-(trifluoromethyl)quinoxaline or DMSO as a solvent control.
BSC-1 cells were released from thymidine-block for three hours and then treated with 50µM or the indicated concentrations of 5-chloro-2-(3,4-dichlorophenyl)-7-(trifluoromethyl)quinoxaline for 18 hours. Treated cells were fixed with formaledehyde-containing buffer and the DNA and microtubule cytoskeleton were visualized with Hoechst and FITC-labled anti-tubulin antibody, respectively. The number of binucleated cells was determined by manual counting of at least 200 cells per concentration.

[7] = tested on: Hela S3 cells; assay: Cellular phenotype: binucleate phenotype; type: cell-based; conditions: Fig. 3
[8] = tested on: cellular processes known to be independent of MPP1 function; assay: Specificity in vivo: effect on cellular processes independent of MPP1; type: cell-based; conditions: golgi/lysosome localization, actin/microtubule cytoskeleton in interphase, protein synthesis, S to M-phase cell cycle progression, wound healing
Description: For the specificity in vivo studies, the effect of 5-chloro-2-(3,4-dichlorophenyl)-7-(trifluoromethyl)quinoxaline on cellular processes known to be independent of MPP1 function, e.g. golgi/lysosome localization, actin/microtubule cytoskeleton in interphase, protein synthesis, S to M-phase cell cycle progression, and wound healing was investigated.

IC50 [1]: ~40 µM
effect on the in vitro ATPase activity of Eg5 [2]: no significant effect
effect on the in vitro ATPase activity of Kif4 [3]: no significant effect
effect on the in vitro ATPase activity of Mklp1 [4]: no significant effect
effect on the in vitro ATPase activity of Mklp2 [5]: no significant effect
EC50 [6]: ~50 µM
SMILES: FC(F)(F)c1cc(Cl)c2ncc(-c3ccc(Cl)c(Cl)c3)nc2c1 [5-chloro-2-(3,4-dichlorophenyl)-7-(trifluoromethyl)quinoxaline]
binucleate phenotype in Hela S3 cells [7]: induces a binucleate phenotype
effect on the tested cellular processes [8]: no observable effect
